Reference: patent publication US20100119646A1, “Dihydroeugenol as Additive for feed” (DSM IP ASSETS B.V., priority 2007, published 2010)
Like-named read-outs stand apart in the source and are kept apart here.

Experiments:
[1] = tested on: total facultative anaerobic bacteria; assay: Gut microflora modulation in vivo, ileo-rectal contents of anastomosed piglets: total facultative anaerobic counts on Brucella agar; settings: 300 ppm in feed; mean CFU per g ileal content dry matter; ten piglets; not significant
[2] = assay type: in vivo; settings: for FCR (kg/kg) / Feed intake / DWG / DWG relative to basal diet A (100) / FCR relative to basal diet A (100) / Feed intake relative to basal diet A (100): 400 ppm in diet (mixture 1: 150 ppm); for FCR (kg/kg) / Feed intake: mean ± standard deviation of 3 determinations; for DWG: mean ± standard deviation of 19 determinations; for DWG relative to basal diet A (100) / FCR relative to basal diet A (100) / Feed intake relative to basal diet A (100): value in brackets, control A = (100); for improvement of feed conversion ratio versus controls: 400 ppm in diet
Enterococcus spp = assay: Gut microflora modulation in vivo, ileo-rectal contents of anastomosed piglets: Enterococcus spp on Enterococci agar; settings: 300 ppm in feed; ten piglets
[3] = tested on: total lactic acid bacteria; assay: Gut microflora modulation in vivo, ileo-rectal contents of anastomosed piglets: lactic acid bacteria on MRS agar; settings: ten piglets
Enterobacteriacae = assay: Gut microflora modulation in vivo, ileo-rectal contents of anastomosed piglets: Enterobacteriacae on V.R.B.D agar; settings: mean CFU per g ileal content dry matter, ten piglets, not significant; for total Enterobacteriacae counts decreased relative to the control: 300 ppm in feed
Escherichia coli = assay: Gut microflora modulation in vivo, ileo-rectal contents of anastomosed piglets: Escherichia coli counts; settings: mean CFU per g ileal content dry matter, ten piglets, not significant
Staphylococcus spp = assay: Gut microflora modulation in vivo, ileo-rectal contents of anastomosed piglets: Staphylococcus spp on Baird Parker agar; settings: 300 ppm in feed; ten piglets
[4] = 300 ppm in feed, mean CFU per g ileal content dry matter, not significant

SMILES	total facultative anaerobic bacteria counts increased relative to the control [1] [%]	FCR (kg/kg) ([2]; day 0-14)	Feed intake ([2]; day 0-14) [g/day]	DWG ([2]; day 0-14) [g]	DWG relative to basal diet A (100) ([2]; day 0-14)	FCR relative to basal diet A (100) ([2]; day 0-14)	Feed intake relative to basal diet A (100) ([2]; day 0-14)	FCR (kg/kg) ([2]; day 0-29)	Feed intake ([2]; day 0-29) [g/day]	DWG ([2]; day 0-29) [g]	DWG relative to basal diet A (100) ([2]; day 0-29)	FCR relative to basal diet A (100) ([2]; day 0-29)	Feed intake relative to basal diet A (100) ([2]; day 0-29)	effect on the population of Enterococcus spp (in words) (Enterococcus spp)	total Enterobacteriacae counts decreased relative to the control (Enterobacteriacae) [%]	also measured
Cc1cccc(C)c1O [2,6-dimethylphenol]	37	1.886 ± 0.06	350 ± 5	186 ± 45	(103)	(99)	(103)	1.914 ± 0.053	694 ± 27	272 ± 53	(105)	(100)	(106)	negative effect	68	effect on the total lactic acid bacteria (in words) ([3]; 300 ppm in feed): neutral effect
Oc1ccc(CC=Cc2ccccc2)cc1 [4-cinnamylphenol]	–	1.82 ± 0.058	345 ± 42	193 ± 41	(107)	(96)	(102)	1.953 ± 0.048	670 ± 72	262 ± 53	(101)	(102)	(102)	–	36	Escherichia coli counts decreased relative to the control (Escherichia coli; 300 ppm in feed): 42%; total lactic acid bacteria counts decreased relative to the control [3, 4]: 22%
O=C1/C(=C/c2ccc(O)c(O)c2)Oc2cc(O)cc(O)c21 [aureusidin]	–	1.965 ± 0.21	332 ± 52	189 ± 61	(104)	(103)	(98)	1.968 ± 0.018	686 ± 72	275 ± 48	(106)	(103)	(104)	–	–	Escherichia coli counts decreased relative to the control (Escherichia coli; 150 ppm in feed): 66%; total lactic acid bacteria counts decreased relative to the control ([3]; 150 ppm in feed, mean CFU per g ileal content dry matter, not significant): 17%; Enterobacteriacae counts decreased relative to the control (Enterobacteriacae; 150 ppm in feed): 30%
CCCc1ccc(O)c(OC)c1 [dihydroeugenol, 2-methoxy-4-propylphenol]	12	1.776 ± 0.034	364 ± 46	208 ± 39	(115)	(93)	(107)	1.88 ± 0.08	708 ± 85	285 ± 33	(110)	(98)	(108)	neutral effect	67	improvement of feed conversion ratio versus controls ([2]; first 14 days of the experiment): 7%; improvement of feed conversion ratio versus controls ([2]; whole observation period (29 days)): 2%; improvement of the daily weight gain comparatively to the non supplemented control ([2]; whole observation period (29 days), dihydroeugenol 400 ppm, mixture 1 150 ppm): 10%; effect on the population of Staphylococcus spp (in words) (Staphylococcus spp): neutral effect; total lactic acid bacteria counts increased relative to the control [3, 4]: 26%
